Assay results as given in patent publication US20230293458A1, “MULTIBIOTIC AGENTS AND METHODS OF USING THE SAME” (Flagship Pioneering Innovations V, Inc., priority 2017, published 2023).

How the values were obtained:
[1] = Assay 1. Stability of multibiotic agents in a buffer; assay type: physicochemical; parameters: key to Assay 1 (% Remaining @ 24 hours): A: <25% of the tested compound remaining; B: 25-75% of the tested compound remaining; C: >75% of the tested compound remaining; D: no change in the amount of the tested compound; settings: for degradation in Assay 1 (in words): buffer stability; for Assay 1 (% Remaining @ 24 hours): phosphate buffer pH 2, 4, 6 and 8, RT, 2 μM, LC/MS/MS
Procedure: Assay 1. Stability of multibiotic agents in a buffer. This assay can be used for the assessment of the stability of a multibiotic agent at different physiological pH levels.
Compounds were diluted in DMSO, and the resulting solution was added in the appropriate quantity to phosphate buffer (pH levels 2, 4, 6, and 8) to reach a total sample concentration of 2 μM. Compounds were incubated at RT, and aliquots were removed at time points 0, 60, 120, 360 and 1440 minutes and analyzed for purity by LC/MS/MS.

[2] = Stability of multibiotic agents in Simulated Gastric Fluid (SGF); assay type: in vitro ADME; settings: simulated gastric fluid pH 1.6 with pepsin, 37° C., 1 μM
Procedure, shortened: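 Compounds were incubated at 1 μM final at 37 °C in simulated gastric fluid containing NaCl, pH 1.6, with FaSSIF powder and 0.1 mg/mL pepsin. Aliquots were taken at T0 and at regular intervals and quenched with acetonitrile. Degradation rates were determined by LC/MS.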

[3] = Stability of multibiotic agents in Simulated Intestinal Fluid (SIF); assay type: in vitro ADME; settings: simulated intestinal fluid pH 6.7 with pancreatin, 37° C., 1 μM
Procedure, shortened: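 Compounds at 1 μM final (from 1 mM DMSO stock) incubated at 37 °C with agitation in fresh SIF (FaSSIF plus pancreatin in pH 6.7 phosphate buffer). Aliquots taken at T0 and regular intervals, quenched with 1 volume acetonitrile. Degradation rate determined by LC/MS.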

Row | Compound | degradation in Assay 1 (in words) [1] | Assay 1 (% Remaining @ 24 hours) [1] | Assay 2 (SGF) (% Remaining @ 4 hours) [2] | Assay 3 (SIF) (% @ Remaining 4 hours) [3]
1 | O=C(CCCc1ccccc1)OC1OC[C@@H](OC(=O)CCCc2ccccc2)[C@H](OC(=O)CCCc2ccccc2)[C@H]1OC(=O)CCCc1ccccc1 (mixture of isomers) [Example 24, [(3R,4S,5R)-4,5,6-tris(4-phenylbutanoyloxy)tetrahydropyran-3-yl] 4-phenylbutanoate] | no apparent degradation | D |  | 
2 | CCCC(=O)OC1OC[C@@H](OC(=O)CCC)[C@H](OC(=O)CCC)[C@H]1OC(=O)CCC (mixture of isomers) [Example 29, [(3R,4S,5R)-4,5,6-tri(butanoyloxy)tetrahydropyran-3-yl] butanoate] | no apparent degradation | D |  | 
3 | CCCC(=O)O[C@@H]1[C@@H](OC(=O)CCC)[C@H](Oc2ccc(N)cc2C(=O)O)OC[C@H]1OC(=O)CCC [Example 21, 5-amino-2-[(2S,3R,4S,5R)-3,4,5-tri(butanoyloxy)tetrahydropyran-2-yl]oxy-benzoic acid] | no apparent degradation | D | C (>75% of the tested compound remaining) | C (>75% of the tested compound remaining)
4 | CCCC(=O)OC[C@@H](OC(=O)CCC)[C@@H](OC(=O)CCC)[C@H](OC(=O)CCC)[C@@H](OC(=O)CCC)C(=O)Oc1ccc(/C=C/c2cc(OC(=O)[C@H](OC(=O)CCC)[C@@H](OC(=O)CCC)[C@H](OC(=O)CCC)[C@@H](COC(=O)CCC)OC(=O)CCC)cc(OC(=O)[C@H](OC(=O)CCC)[C@@H](OC(=O)CCC)[C@H](OC(=O)CCC)[C@@H](COC(=O)CCC)OC(=O)CCC)c2)cc1 [Example 164, [4-[(E)-2-[3,5-bis[[(2R,3S,4R,5R)-2,3,4,5,6-penta(butanoyloxy)hexanoyl]oxy]phenyl]vinyl]phenyl] (2R,3S,4R,5R)-2,3,4,5,6-penta(butanoyloxy)hexanoate] |  |  | B (25-75% of the tested compound remaining) | B (25-75% of the tested compound remaining)
5 | CCC(=O)OC1OC[C@@H](OC(=O)CC)[C@H](OC(=O)CC)[C@H]1OC(=O)CC (stereo partly drawn) [Example 165, [(3R,4S,5R)-4,5,6-tri(propanoyloxy)tetrahydropyran-3-yl] propanoate] |  |  | C (>75% of the tested compound remaining) | A (<25% of the tested compound remaining)
6 | CCC(=O)O[C@@H]1[C@@H](OC(=O)CC)[C@H](OC(=O)CC)CO[C@H]1O [Example 166, [(3R,4S,5R,6R)-6-hydroxy-4,5-di(propanoyloxy)tetrahydropyran-3-yl] propanoate] |  |  | C (>75% of the tested compound remaining) | B (25-75% of the tested compound remaining)
7 | CC(=O)Oc1ccc(-c2oc3cc(OC(C)=O)cc(OC(C)=O)c3c(=O)c2OC(C)=O)cc1 [Example 169, [4-(3,5,7-triacetoxy-4-oxo-chromen-2-yl)phenyl] acetate] |  |  | C (>75% of the tested compound remaining) | A (<25% of the tested compound remaining)
8 | CC(=O)Oc1ccc(C2CC(=O)c3c(OC(C)=O)cc(OC(C)=O)cc3O2)cc1 (stereo not shown) [Example 170, [4-(5,7-diacetoxy-4-oxo-chroman-2-yl)phenyl] acetate] |  |  | C (>75% of the tested compound remaining) | A (<25% of the tested compound remaining)
9 | CCCC(=O)Oc1ccc(C2CC(=O)c3c(OC(=O)CCC)cc(OC(=O)CCC)cc3O2)cc1 (stereo not shown) [Example 171, [4-[5,7-di(butanoyloxy)-4-oxo-chroman-2-yl]phenyl] butanoate] |  |  | B (25-75% of the tested compound remaining) | A (<25% of the tested compound remaining)
10 | C[C@@H](O)CCOC(=O)C[C@@H](C)O [Example 172, [(3R)-3-hydroxybutyl] (3R)-3-hydroxybutanoate] |  |  | C (>75% of the tested compound remaining) | C (>75% of the tested compound remaining)
11 | CCCC(=O)O[C@H](C)CCOC(=O)C[C@@H](C)OC(=O)CCC [Example 173, [(3R)-3-butanoyloxybutyl] (3R)-3-butanoyloxybutanoate] |  |  | C (>75% of the tested compound remaining) | A (<25% of the tested compound remaining)
12 | CC(=O)Oc1cc(OC(C)=O)c2c(=O)c(OC(C)=O)c(-c3cc(OC(C)=O)c(OC(C)=O)c(OC(C)=O)c3)oc2c1 [Example 177, [3,5-diacetoxy-4-oxo-2-(3,4,5-triacetoxyphenyl)chromen-7-yl] acetate] |  |  | C (>75% of the tested compound remaining) | A (<25% of the tested compound remaining)
13 | CC(=O)OCC[C@@H](C)OC(=O)Oc1ccc(/C=C/c2cc(OC(=O)O[C@H](C)CCOC(C)=O)cc(OC(=O)O[C@H](C)CCOC(C)=O)c2)cc1 [Example 178, [(3R)-3-[4-[(E)-2-[3,5-bis[[(1R)-3-acetoxy-1-methyl-propoxy]carbonyloxy]phenyl]vinyl]phenoxy]carbonyloxybutyl] acetate] |  |  | C (>75% of the tested compound remaining) | A (<25% of the tested compound remaining)
14 | CC(=O)OC[C@H]1O[C@@H](Oc2c(C)c(C)c3c(c2C)CC[C@@](C)(CCC[C@H](C)CCC[C@H](C)CCCC(C)C)O3)[C@H](OC(C)=O)[C@@H](OC(C)=O)[C@@H]1OC(C)=O [Example 180, [(2R,3R,4S,5R,6S)-3,4,5-triacetoxy-6-[(2R)-2,5,7,8-tetramethyl-2-[(4R,8R)-4,8,12-trimethyltridecyl]chroman-6-yl]oxy-tetrahydropyran-2-yl]methyl acetate] |  |  | C (>75% of the tested compound remaining) | C (>75% of the tested compound remaining)
15 | C[C@@H]1CCOC(C)(C(=O)Oc2ccc(/C=C/c3cc(OC(=O)C4(C)OCC[C@@H](C)O4)cc(OC(=O)C4(C)OCC[C@@H](C)O4)c3)cc2)O1 (stereo partly drawn) [Example 182, [4-[(E)-2-[3,5-bis[[(4R)-2,4-dimethyl-1,3-dioxane-2-carbonyl]oxy]phenyl]vinyl]phenyl] (4R)-2,4-dimethyl-1,3-dioxane-2-carboxylate] |  |  | C (>75% of the tested compound remaining) | C (>75% of the tested compound remaining)
16 | Cc1c(C)c2c(c(C)c1OC(=O)C1OCC[C@@H](C)O1)CC[C@@](C)(CCC[C@H](C)CCC[C@H](C)CCCC(C)C)O2 (stereo partly drawn) [Example 183, [(2R)-2,5,7,8-tetramethyl-2-[(4R,8R)-4,8,12-trimethyltridecyl]chroman-6-yl] (4R)-4-methyl-1,3-dioxane-2-carboxylate] |  |  | C (>75% of the tested compound remaining) | A (<25% of the tested compound remaining)
17 | C=C1CC[C@H](OC(=O)[C@H](OC(=O)CCC)[C@@H](OC(=O)CCC)[C@H](OC(=O)CCC)[C@@H](COC(=O)CCC)OC(=O)CCC)C/C1=C/C=C1\CCC[C@]2(C)[C@@H]([C@H](C)CCCC(C)C)CC[C@@H]12 [Example 184, [(1S,3Z)-3-[(2E)-2-[(1R,3aS,7aR)-1-[(1R)-1,5-dimethylhexyl]-7a-methyl-2,3,3a,5,6,7-hexahydro-1H-inden-4-ylidene]ethylidene]-4-methylene-cyclohexyl] (2R,3S,4R,5R)-2,3,4,5,6-penta(butanoyloxy)hexanoate] |  |  | B (25-75% of the tested compound remaining) | A (<25% of the tested compound remaining)
18 | C=C1CC[C@H](OC(=O)C2OCC[C@@H](C)O2)C/C1=C/C=C1\CCC[C@]2(C)[C@@H]([C@H](C)CCCC(C)C)CC[C@@H]12 (stereo partly drawn) [Example 186, [(1S,3Z)-3-[(2E)-2-[(1R,3aS,7aR)-1-[(1R)-1,5-dimethylhexyl]-7a-methyl-2,3,3a,5,6,7-hexahydro-1H-inden-4-ylidene]ethylidene]-4-methylene-cyclohexyl] (4R)-4-methyl-1,3-dioxane-2-carboxylate] |  |  | C (>75% of the tested compound remaining) | C (>75% of the tested compound remaining)
19 | C=C1CC[C@H](OC(=O)C2(C)OCC[C@@H](C)O2)C/C1=C/C=C1\CCC[C@]2(C)[C@@H]([C@H](C)CCCC(C)C)CC[C@@H]12 (stereo partly drawn) [Example 187, [(1S,3Z)-3-[(2E)-2-[(1R,3aS,7aR)-1-[(1R)-1,5-dimethylhexyl]-7a-methyl-2,3,3a,5,6,7-hexahydro-1H-inden-4-ylidene]ethylidene]-4-methylene-cyclohexyl] (4R)-2,4-dimethyl-1,3-dioxane-2-carboxylate] |  |  | B (25-75% of the tested compound remaining) | C (>75% of the tested compound remaining)
